According to the supplement of paper PMC4862054:
Where “and” joins values, the source holds several entries; their conditions need not be identical. Equal values may be shown once.

Columns and labels:
Test in all cases: normalised viability (% of control), CellTiter-Blue; higher = more viable cells (about 100 = DMSO control)
Conditions in all cases: incubation time: 72 h
CAL-148 [1] = test system: CAL-148
Procedure: (§1)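 DSRT, CellTiter-Blue viability, 72 h incubation. Signal is normalised to DMSO and benzethonium chloride controls. Value is the normalised response at dose 9.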

CAL-51 [2] = test system: CAL-51
Procedure: as §1

CAL-85-1 [3] = test system: CAL-85-1
Procedure: as §1

DU-4475 [4] = test system: DU-4475
Procedure: as §1

HDQ-P1 [5] = test system: HDQ-P1
Procedure: as §1

MDA-MB-453 [6] = test system: MDA-MB-453
Procedure: as §1

CAL-148 [7] = test system: CAL-148; remark: listed apart in the source
Procedure: (§2)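 DSRT, CellTiter-Blue viability, 72 h incubation. Signal is normalised to DMSO and benzethonium chloride controls. Value is the normalised response at dose 8.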

CAL-51 [8] = test system: CAL-51; remark: listed apart in the source
Procedure: as §2

CAL-85-1 [9] = test system: CAL-85-1; remark: listed apart in the source
Procedure: as §2

DU-4475 [10] = test system: DU-4475; remark: listed apart in the source
Procedure: as §2

HDQ-P1 [11] = test system: HDQ-P1; remark: listed apart in the source
Procedure: as §2

MDA-MB-453 [12] = test system: MDA-MB-453; remark: listed apart in the source
Procedure: as §2

Structure (SMILES)	normalised viability (CAL-148 [1])	normalised viability (CAL-51 [2])	normalised viability (CAL-85-1 [3])	normalised viability (DU-4475 [4])	normalised viability (HDQ-P1 [5])	normalised viability (MDA-MB-453 [6])	normalised viability (CAL-148 [7])	normalised viability (CAL-51 [8])	normalised viability (CAL-85-1 [9])	normalised viability (DU-4475 [10])	normalised viability (HDQ-P1 [11])	normalised viability (MDA-MB-453 [12])
Cc1cccc(-c2nn3c(c2-c2ccnc4ccc(C(N)=O)cc24)CCC3)n1 (1000 nM)	79.7%	103%	101%	124%	133%	104%						
Cn1cc(CNCC2CCN(c3ncc(C(=O)NO)cn3)CC2)c2ccccc21 (1000 nM)	0.7%	2.6%	3.26%	3.03%	18.9%	2.12%						
O=C(NC[C@H](O)CO)c1ccncc1Nc1ccc(I)cc1F (10000 nM)	70.5%	65%	39.9%	-0.44%	46.3%	37.1%						
Nc1nc(=O)c2c([nH]1)NCC(CNc1ccc(C(=O)N[C@@H](CCC(=O)O)C(=O)O)cc1)N2C=O (mixture of isomers) [Folinic acid] (990 nM)	105%	94.1%	98%	115%	86.9%	103%						
O=C(Nc1c[nH]nc1-c1nc2ccc(CN3CCOCC3)cc2[nH]1)NC1CC1 [AT9283] (10000 nM)	1.55%	4.48%	-0.09%	-1.62%	7.44%	11.2%						
O=S(=O)(c1cccc2cnccc12)N1CCCNCC1 [Fasudil] (10000 nM)	82.3%	109%	99.3%	101%	180%	57.8%						
CS(=O)(=O)N1CCN(Cc2cc3nc(-c4cccc5[nH]ncc45)nc(N4CCOCC4)c3s2)CC1 [GDC-0941] (10000 nM)	0.59%	2.35%	13.3%	-0.76%	12.8%	5.58%						
Cc1ccc(Nc2nccc(N(C)c3ccc4c(C)n(C)nc4c3)n2)cc1S(N)(=O)=O [Pazopanib] (3000 nM)							67.7%	87.6%	96%	110%	77.9%	42.5%
O=C(CCBr)N1CCN(C(=O)CCBr)CC1 [Pipobroman] (3000 nM)							104%	124%	102%	106%	100%	108%
c1cc(CN2CCCNCCNCCCNCC2)ccc1CN1CCCNCCNCCCNCC1 [Plerixafor] (750 nM)							79.1%	103%	93%	95.9%	119%	92.5%
c1cc(CN2CCCNCCNCCCNCC2)ccc1CN1CCCNCCNCCCNCC1 [Plerixafor] (2500 nM)	83.5%	111%	97%	99.3%	125%	103%						
C[C@]12C=CC(=O)C=C1CC[C@@H]1[C@@H]2[C@@H](O)C[C@@]2(C)[C@H]1CC[C@]2(O)C(=O)CO [Prednisolone] (3000 nM)							96%	102%	117%	106%	121%	75.4%
CCN(CC)CCNC(=O)c1c(C)[nH]c(/C=C2\C(=O)Nc3ccc(F)cc32)c1C [Sunitinib] (300 nM)							93.2% and 108%	113% and 96%	107% and 105%	102% and 94.5%	97.1% and 115%	101% and 83.8%
CC[C@@]1(O)C(=O)OCc2c1cc1n(c2=O)Cc2cc3c(CN(C)C)c(O)ccc3nc2-1 [Topotecan] (300 nM)							31.4%	66.2%	66.9%	47.5%	87.8%	69.3%
